Measured values as given in patent publication US20230066946A1, “1,5-DIPHENYLPYRAZOLYL-3-OXYALKYL ACIDS AND 1-PHENYL-5-THIENYLPYRAZOLYL-3-OXYALKYL ACIDS AND THE USE THEREOF FOR CONTROL OF UNWANTED PLANT GROWTH” (Bayer Aktiengesellschaft, priority 2019, published 2023).

Experiments:
SETVI [1] = assay: Post-emergence herbicidal action against SETVI; assay type: in vivo, Setaria viridis; conditions: 1280 g/ha, post-emergence at one-leaf stage, rated visually after about 3 weeks vs untreated controls
Method in brief: (§1)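 Visual scoring, where 100% = dead and 0% = like untreated plants, was done about 3 weeks after treatment. Dose was 1280 or 320 g/ha, delivered as aqueous WP/EC suspension or emulsion with 0.5% additive at 600 L/ha. Pot-grown weeds in sandy loam were treated post-emergence at one leaf, 2-3 weeks post-sowing.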

PHBPU = assay: Post-emergence herbicidal action against PHBPU; assay type: in vivo, Pharbitis purpurea; conditions: 320 g/ha, visual rating about 3 weeks after treatment
Procedure: (§2) [table] Seeds of mono- and dicotyledonous weed plants are placed in plastic pots in sandy loam soil (twin sowing with one species each of mono- or dicotyledonous weed plants per pot), covered with soil and cultivated in a greenhouse under controlled growth conditions. 2 to 3 weeks after sowing, the test plants are treated at the one-leaf stage. The compounds of the invention, formulated in the form of wettable powders (WP) or as emulsion concentrates (EC), are applied to the green parts of the plants as aqueous suspension or emulsion with addition of 0.5% additive at a water application rate equivalent to 600 litres per hectare. After the test plants have been kept in the greenhouse under optimum growth conditions for about 3 weeks, the activity of the preparations is rated visually in comparison to untreated controls. For example, 100% activity=the plants have died, 0% activity=like control plants. Tables 5.1-5.16 below show the effects of selected compounds of the general formula (I) according to Tables 1 to 3 on various harmful plants at an application rate corresponding to 1280 or 320 g/ha, which have been obtained by the aforementioned experimental method.

MATIN [2] = assay: Pre-emergence herbicidal action against MATIN; assay type: in vivo, Matricaria inodora; conditions: 1280 g/ha, scored visually after about 3 weeks vs untreated controls
Excerpt: (§3) Seeds of mono- and dicotyledonous weed plants are placed in plastic pots in sandy loam soil (doubly sown with one species each of mono- or dicotyledonous weed plants per pot) and covered with soil. The compounds of the invention, formulated in the form of wettable powders (WP) or as emulsion concentrates (EC), are then applied onto the surface of the covering soil as aqueous suspension or emulsion with addition of 0.5% additive at a water application rate equivalent to 600 litres per hectare. After the treatment, the pots are placed in a greenhouse and kept under good growth conditions for the trial plants. After about 3 weeks, the effect of the preparations is scored visually in comparison with untreated controls as percentages. For example, 100% activity=the plants have died, 0% activity=like control plants. [table] Tables 4.1-4.15 below show the effects of selected compounds of the general formula (I) according to Tables 1 to 3 on various harmful plants at an application rate corresponding to 1280 or 320 g/ha, which have been obtained by the aforementioned experimental method.

ECHCG [3] = assay: Post-emergence herbicidal action against ECHCG; assay type: in vivo, Echinochloa crus-galli; conditions: 1280 g/ha, post-emergence at one-leaf stage, rated visually after about 3 weeks vs untreated controls
Method in brief: as §1

STEME [4] = assay: Pre-emergence herbicidal action against STEME; assay type: in vivo, Stellaria media; conditions: scored visually after about 3 weeks vs untreated controls
Method in brief: (§4)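 Weed seeds were sown in sandy loam soil in pots and covered; compounds formulated as WP or EC were sprayed onto the covering soil as aqueous suspension/emulsion with 0.5% additive at 600 L/ha water. Application rate 1280 or 320 g/ha. Greenhouse grown; visual % activity vs untreated controls after about 3 weeks.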

AMARE [5] = assay: Post-emergence herbicidal action against AMARE; assay type: in vivo, Amaranthus retroflexus; conditions: visual rating about 3 weeks after treatment
Method in brief: as §1

STEME [6] = assay: Post-emergence herbicidal action against STEME; assay type: in vivo, Stellaria media; conditions: visual rating about 3 weeks after treatment
Method in brief: as §1

AMARE [7] = assay: Pre-emergence herbicidal action against AMARE; assay type: in vivo, Amaranthus retroflexus; conditions: scored visually after about 3 weeks vs untreated controls; for Pre-emergence action against AMARE in %: 1280 g/ha; for Pre-emergence action at 320 g/ha against AMARE in %: 100% = plants have died, 0% = like control plants
Method in brief: as §4

VERPE [8] = assay: Pre-emergence herbicidal action against VERPE; assay type: in vivo, Veronica persica; conditions: 320 g/ha, scored visually after about 3 weeks vs untreated controls
Excerpt: as §3

MATIN [9] = assay: Post-emergence herbicidal action against MATIN; assay type: in vivo, Matricaria inodora; conditions: visual rating about 3 weeks after treatment
Method in brief: as §1

VIOTR [10] = assay: Post-emergence herbicidal action against VIOTR; assay type: in vivo, Viola tricolor; conditions: 320 g/ha, visual rating about 3 weeks after treatment
Procedure: as §2

ALOMY = assay: Post-emergence herbicidal action against ALOMY; assay type: in vivo, Alopecurus myosuroides; conditions: 1280 g/ha, post-emergence at one-leaf stage, rated visually after about 3 weeks vs untreated controls
Procedure: as §2

VIOTR [11] = assay: Pre-emergence herbicidal action against VIOTR; assay type: in vivo, Viola tricolor; conditions: 1280 g/ha, scored visually after about 3 weeks vs untreated controls
Excerpt: as §3

VERPE [12] = assay: Post-emergence herbicidal action against VERPE; assay type: in vivo, Veronica persica; conditions: 320 g/ha, visual rating about 3 weeks after treatment
Procedure: as §2

HORMU = assay: Post-emergence herbicidal action against HORMU; assay type: in vivo, Hordeum murinum; conditions: 320 g/ha, visual rating about 3 weeks after treatment
Procedure: as §2

POLCO [13] = assay: Pre-emergence herbicidal action against POLCO; assay type: in vivo, Polygonum convolvulus; conditions: 320 g/ha, scored visually after about 3 weeks vs untreated controls
Excerpt: as §3

SETVI [14] = assay: Pre-emergence herbicidal action against SETVI; assay type: in vivo, Setaria viridis; conditions: 1280 g/ha, scored visually after about 3 weeks vs untreated controls
Method in brief: as §4

ECHCG [15] = assay: Pre-emergence herbicidal action against ECHCG; assay type: in vivo, Echinochloa crus-galli; conditions: scored visually after about 3 weeks vs untreated controls, 100% = plants have died, 0% = like control plants
Method in brief: as §4

POLCO [16] = assay: Post-emergence herbicidal action against POLCO; assay type: in vivo, Polygonum convolvulus; conditions: 320 g/ha, visual rating about 3 weeks after treatment
Procedure: as §2

harmful plants = assay: Pre-emergence herbicidal action, summary of Tables 4.1-4.15; assay type: in vivo; conditions: result in words
Excerpt: as §3, with “plants.” for “plants. [table] Tables 4.1-4.15 below show the effects of selected compounds of the general formula (I) according to Tables 1 to 3 on various harmful plants at an application rate corresponding to 1280 or 320 g/ha, which have been obtained by the aforementioned experimental method.”
Tables 4.1-4.15 below show the effects of selected compounds of the general formula (I) according to Tables 1 to 3 on various harmful plants at an application rate corresponding to 1280 or 320 g/ha, which have been obtained by the aforementioned experimental method.
For example, compounds no. I-008, I-056, I-057, I-061, I-067, I-070 and I-072 applied by the pre-emergence method have very good action (80% to 100% herbicidal action) against harmful plants such as Alopecurus myosuroides, Amaranthus retroflexus, Matricaria inodora, Polygonum convolvulus, Setaria viridis and Stellaria media at an application rate of 1.28 kg of active substance or less per hectare.

| SMILES | Post-emergence action against PHBPU in % (PHBPU) [%] | Pre-emergence action against MATIN in % (MATIN [2]) [%] | Post-emergence action against ECHCG in % (ECHCG [3]) [%] | Pre-emergence action against STEME in % (STEME [4]; 1280 g/ha) [%] | Post-emergence action against AMARE in % (AMARE [5]; 1280 g/ha) [%] | Post-emergence action against STEME in % (STEME [6]; 1280 g/ha) [%] | Pre-emergence action against AMARE in % (AMARE [7]) [%] | Post-emergence action against MATIN in % (MATIN [9]; 1280 g/ha) [%] | Post-emergence action against VIOTR in % (VIOTR [10]) [%] | Post-emergence action against STEME in % (STEME [6]; 320 g/ha) [%] | Pre-emergence action at 320 g/ha against AMARE in % (AMARE [7]) [%] | Post-emergence action against VERPE in % (VERPE [12]) [%] | Pre-emergence action against SETVI in % (SETVI [14]) [%] | Pre-emergence action against STEME in % (STEME [4]; 320 g/ha) [%] | other results |
| --- | --- | --- | --- | --- | --- | --- | --- | --- | --- | --- | --- | --- | --- | --- | --- |
| COC(=O)COc1nn(-c2cccc(F)c2)c(-c2ccccc2)c1Cl [I-016] | 80 | 90 | 80 | 80 | 80 | 80 | 100 |  |  |  |  |  |  |  | Post-emergence action against SETVI in % (SETVI [1]): 80% |
| COC(=O)COc1nn(-c2cccc(F)c2)c(-c2ccccc2)c1C#N [I-023] | 80 | 100 |  |  | 80 | 80 | 90 | 80 | 80 | 80 | 90 |  |  |  | Pre-emergence action against VERPE in % (VERPE [8]): 90% |
| COC(=O)COc1nn(-c2cccc(Cl)c2)c(-c2ccc(F)c(F)c2)c1Cl [I-026] | 90 | 90 |  |  | 80 |  | 80 |  | 80 |  |  |  |  |  |  |
| COC(=O)COc1nn(-c2cccc(Cl)c2)c(-c2cccc(F)c2)c1C#N [I-046] | 80 | 90 |  |  | 80 | 80 | 90 | 80 | 80 | 80 | 90 | 80 |  |  | Post-emergence action against ALOMY in % (ALOMY): 80%; Pre-emergence action against VIOTR in % (VIOTR [11]): 90% |
| COC(=O)COc1nn(-c2ccc(Cl)cc2)c(-c2cccc(F)c2)c1C#N [I-048] |  | 80 |  |  |  |  |  |  |  |  |  | 80 |  |  |  |
| COC(=O)COc1nn(-c2ccccc2F)c(-c2ccc(F)c(F)c2)c1Br [I-055] | 80 |  | 100 | 100 | 90 | 100 | 100 | 100 | 100 | 80 | 100 | 80 | 100 | 100 | Pre-emergence action against VERPE in % (VERPE [8]): 90%; Post-emergence action against HORMU in % (HORMU): 80%; Pre-emergence action against POLCO in % (POLCO [13]): 90%; Pre-emergence action at 1280 g/ha against ECHCG in % (ECHCG [15]): 100%; Post-emergence action against AMARE in % (AMARE [5]; 320 g/ha): 90%; Post-emergence action against POLCO in % (POLCO [16]): 80% |
| C#Cc1c(OCC(=O)OC)nn(-c2ccccc2F)c1-c1ccccc1 [I-063] |  |  |  | 80 |  |  | 80 | 80 | 90 |  |  |  | 100 |  | Post-emergence action against SETVI in % (SETVI [1]): 80%; Pre-emergence action against VIOTR in % (VIOTR [11]): 100% |
| C#Cc1c(OCC(=O)OC)nn(-c2ccccc2)c1-c1ccc(F)cc1 [I-066] | 90 |  |  |  |  |  | 100 | 80 | 80 |  |  |  |  |  | Post-emergence action against MATIN in % (MATIN [9]; 320 g/ha): 80%; Pre-emergence action against VIOTR in % (VIOTR [11]): 90% |
| CCOC(=O)COc1nn(-c2ccccc2F)c(-c2ccccc2)c1[N+](=O)[O-] [I-075] | 90 |  |  |  |  |  |  |  | 100 |  |  | 80 |  | 80 | Post-emergence action against HORMU in % (HORMU): 80%; Pre-emergence action against POLCO in % (POLCO [13]): 80%; Post-emergence action against MATIN in % (MATIN [9]; 320 g/ha): 80%; Post-emergence action against POLCO in % (POLCO [16]): 80% |
| COC(=O)[C@H](C)Oc1nn(-c2ccccc2)c(-c2ccc(F)cc2)c1C#N [I-141] |  |  | 100 | 90 | 90 | 90 | 100 | 90 | 90 | 90 | 90 |  | 100 | 80 | Post-emergence action against HORMU in % (HORMU): 80%; Post-emergence action against MATIN in % (MATIN [9]; 320 g/ha): 80%; Pre-emergence action at 1280 g/ha against ECHCG in % (ECHCG [15]): 100%; Post-emergence action against AMARE in % (AMARE [5]; 320 g/ha): 90% |
| C=CCNC(=O)COc1nn(-c2ccccc2F)c(-c2ccccc2)c1Br [III-003] | 80 |  | 100 | 100 | 100 |  | 100 |  |  |  | 100 | 80 | 100 | 100 | Post-emergence action against SETVI in % (SETVI [1]): 100%; Pre-emergence action against VERPE in % (VERPE [8]): 100%; Pre-emergence action against POLCO in % (POLCO [13]): 100%; Pre-emergence action at 1280 g/ha against ECHCG in % (ECHCG [15]): 100%; Post-emergence action against AMARE in % (AMARE [5]; 320 g/ha): 80%; herbicidal efficacy against harmful plants in the case of pre-emergence treatment (harmful plants): good herbicidal efficacy |
